Earlier results, collected in US12551462B2, “Anti-aging composition with rutin, apigenin, epigallocatechin gallate, lipoic acid and the NAD precursor, niacinamide” (NUCHIDO LIMITED, priority 2018, dated 2026).

System: NAD concentration
Conditions: Trammell et al. 2016

NC(=O)c1ccc[n+]([C@@H]2O[C@H](CO)[C@@H](O)[C@H]2O)c1 [Niagen, nicotinamide riboside]
Enhancement of NAD (as % baseline): 270%
